“And” between values parts separate entries of the source, which are not always exact repeats. Identical values can stand only once.
Assay: logP by HPLC on reversed-phase column (C 18), EEC Directive 79/831 Annex V.A8
Type: physicochemical
Settings: not given
Procedure: In table 1, the logP values were determined in accordance with EEC Directive 79/831 Annex V.A8 by HPLC (High Performance Liquid Chromatography) on a reversed-phase column (C 18), using the method described below: Temperature: 40° C.; […]

Compound | logP
Cn1nc(C(F)F)c(C(=O)NCCc2c(F)c(F)nc(F)c2F)c1Cl [Example 209] | 2.60
Cn1nc(C(F)F)c(C(=O)NCCc2ccc(Cl)nc2)c1Cl [Example 196] | 1.90
Cn1nc(C(F)F)c(C(=O)N(CCC#N)CCc2ccccc2)c1F [Example 3] | 2.39
Cn1nc(C(F)F)c(C(=O)NC2CC2c2ccc(F)cc2)c1Cl (centres unmarked) [Example 221] | 2.75
CN(CCc1ccccn1)C(=O)c1c(C(F)F)nn(C)c1Cl [Example 183] | 1.63
CC(C)N(CCc1ccncc1)C(=O)c1c(C(F)F)nn(C)c1Cl [Example 205] | 0.98
Cn1nc(C(F)F)c(C(=O)NC2CCCCC2c2ccccc2)c1Cl (centres unmarked) [Example 214] | 3.33
COCCN(CCc1ccncc1)C(=O)c1c(C(F)F)nn(C)c1F [Example 199] | 1.56
CCN(C(=O)c1c(C(F)F)nn(C)c1Cl)C(C)C(=O)c1ccccc1 (centres unmarked) [Example 18] | 2.71
CC(C)N(CCc1ccc(F)cc1)C(=O)c1c(C(F)F)nn(C)c1F [Example 23] | 3.23
Cn1nc(C(F)F)c(C(=O)NC2CC2c2ccccc2C(F)(F)F)c1Cl (centres unmarked) [Example 226] | 3.15
CC(C)N(CCc1ccccc1)C(=O)c1c(C(F)F)nn(C)c1F [Example 2] | 3.19
Cn1nc(C(F)F)c(C(=O)N(CCc2ccccn2)C2CCCCC2)c1F [Example 175] | 1.48
Cn1nc(C(F)F)c(C(=O)N(CCc2ccncc2)C2CCCC2)c1Cl [Example 204] | 1.32
Cn1nc(C(F)F)c(C(=O)N(CCc2ccncc2)C2CCCC2)c1F [Example 201] | 1.20
CN(CCc1ccccn1)C(=O)c1c(C(F)F)nn(C)c1F [Example 179] | 1.47
CC(C)N(CCc1ccncc1)C(=O)c1c(C(F)F)nn(C)c1F [Example 198] | 0.78

Compound | logP
Cn1nc(C(F)F)c(C(=O)NC2CC2c2cccc(F)c2)c1Cl (centres unmarked) [Example 223] | 2.75
CC(C)N(CCc1ccccn1)C(=O)c1c(C(F)F)nn(C)c1F [Example 178] | 0.85
CN(CC(=O)c1ccc(Cl)cc1)C(=O)c1c(C(F)F)nn(C)c1Cl [Example 62] | 2.68
Cn1nc(C(F)F)c(C(=O)N(CCc2ccccn2)C2CCCCC2)c1Cl [Example 180] | 1.58
CC(C)N(CCc1ccc(F)cc1)C(=O)c1c(C(F)F)nn(C)c1Cl [Example 25] | 3.37
Cn1nc(C(F)F)c(C(=O)N(CCc2ccncc2)C2CCCCC2)c1Cl [Example 203] | 1.50
Cn1nc(C(F)F)c(C(=O)N(CCc2ccncc2)C2CCCCC2)c1F [Example 200] | 1.39
CC(CN(C)C(=O)c1c(C(F)F)nn(C)c1F)c1ccncc1 (centres unmarked) [Example 206] | 1.60
Cn1nc(C(F)F)c(C(=O)N(CCC#N)CCc2ccccc2)c1Cl [Example 8] | 2.53
Cn1nc(C(F)F)c(C(=O)N(CCc2ccccc2)C2CCCC2)c1F [Example 1] | 3.69
COc1ccc(CCN(C(=O)c2c(C(F)F)nn(C)c2F)C2CCCCC2)cc1OC [Example 130] | 3.42
Cn1nc(C(F)F)c(C(=O)N(CCc2ccccn2)C2CCCC2)c1Cl [Example 181] | 1.40
Cn1nc(C(F)F)c(C(=O)NCCc2ccc(Cl)nc2)c1F [Example 197] | 1.78
COc1ccc(CCN(C)C(=O)c2c(C(F)F)nn(C)c2Cl)cc1OC [Example 131] | 2.18
COc1ccc(CCN(C(=O)c2c(C(F)F)nn(C)c2Cl)C2CCCCC2)cc1OC [Example 132] | 3.53
Cc1cc(C)c(CCN(C(=O)c2c(C(F)F)nn(C)c2Cl)C(C)C)c(C)c1 [Example 136] | 4.49
Cn1nc(C(F)F)c(C(=O)N(CCc2ccccc2)C2CCCC2)c1Cl [Example 6] | 3.89

Same assay, conditions: HPLC on reversed-phase column (C 18), 40° C., 0.1% aqueous formic acid and acetonitrile, linear gradient 10% to 90% acetonitrile

Compound | logP
Cn1nc(C(F)F)c(C(=S)N(C2CC2)C2CCCCC2(C)c2ccccc2)c1F (mixture of isomers) [Example 219] | 5.01 and 5.11

Reference: patent US9232799B2, “N-[(het)arylethyl)] pyrazole(thio)carboxamides and their heterosubstituted analogues” (BAYER INTELLECTUAL PROPERTY GMBH, priority 2010, dated 2016)
